Values of other authors in patent US20230046815A1, “Wound honey with a pump dispenser” (priority 2021, published 2023).

Tested on: Salmonella sp.
Details: single agent

Structure (SMILES) | Minimal Bactericidal Concentration [%]
OO [Hydrogen Peroxide] | 3.12
O=C(O)CC(O)(CC(=O)O)C(=O)O [Citric Acid] | 5
